In patent US10457916B2, “Method for inducing differentiation of insulin-producing cells” (TOKYO INSTITUTE OF TECHNOLOGY, priority 2014, dated 2019):

Tests used:
Format in all cases: cell-based, human
[1] = test system: endocrine progenitor cells; experiment: Intracellular C-peptide content of cells differentiated at stage 5 (ELISA); details: differentiated cells at the end of stage 5
Procedure: (§1) To this medium were added 50 ng/ml exendin-4 (Ex-4; Cell Sciences), 10 mM nicotinamide (NA; Sigma-Aldrich), and/or 100 μM 3-isobutyl-1-methylxanthine (IBMX; phosphodiesterase inhibitor; Wako), and/or 10 μM forskolin (FRKL; adenylate cyclase activator; Wako). The media were changed every two days.
The differentiated cells at the end of stage 5 were initially incubated at 37° C. for 30 min with DMEM (Life Technologies) containing minimal essential medium, 2.5 mM glucose and 1% B27 Supplement Xeno-Free CTS. This initial incubation was regarded as washing. Subsequently, the medium was discarded and then the cells were incubated with DMEM (100 μl per well) containing 2.5 mM glucose at 37° for 1 hr. After collecting the supernatant, the same cells were further cultured for 1 hr in 20 mM glucose-containing DMEM or 2.5 mM glucose-containing DMEM supplemented with various stimulants, e.g., 2 μM (−)-Bay K8644 (Sigma-Aldrich), 100 μM tolbutamide (Wako), 250 μM carbachol (Sigma-Aldrich), 0.5 mM IBMX or 30 mM potassium chloride (KCl) (Wako). […] Intracellular C-peptide and protein levels were quantitatively determined. C-peptide level was measured using a human C-peptide ELISA kit (ALPCO Diagnostics) according to the manufacturer's instructions. The total protein in cell lysate was quantitatively determined using a Bio-Rad reagent kit (Bio-Rad). […]

[2] = test system: endocrine progenitor cells; experiment: Stage 5 differentiation into endocrine cells, immunocytochemistry; details: for proportion of PDX1-positive/CP-negative cells / proportion of CP single-positive cells: end of stage 5; for proportion of CP single-positive cells: added to basal medium with exendin-4 and nicotinamide
Procedure: as §1

[3] = test system: differentiated cells at the end of stage 5; experiment: C-peptide secretion in response to glucose and insulin secretagogues (ELISA); details: 1 hr, versus 2.5 mM glucose without secretagogues; 30 mM KCl, 100 μM tolbutamide, 2 μM Bay K8644, 0.5 mM IBMX, 250 μM carbachol
Procedure: The differentiated cells at the end of stage 5 were initially incubated at 37° C. for 30 min with DMEM (Life Technologies) containing minimal essential medium, 2.5 mM glucose and 1% B27 Supplement Xeno-Free CTS. This initial incubation was regarded as washing. Subsequently, the medium was discarded and then the cells were incubated with DMEM (100 μl per well) containing 2.5 mM glucose at 37° for 1 hr. After collecting the supernatant, the same cells were further cultured for 1 hr in 20 mM glucose-containing DMEM or 2.5 mM glucose-containing DMEM supplemented with various stimulants, e.g., 2 μM (−)-Bay K8644 (Sigma-Aldrich), 100 μM tolbutamide (Wako), 250 μM carbachol (Sigma-Aldrich), 0.5 mM IBMX or 30 mM potassium chloride (KCl) (Wako). The supernatant was collected again and stored at −20° C. until analysis. Finally, the cells were lysed with 0.01% Triton X-100 in PBS containing 1% protease inhibitor cocktail (Nacalai Tesque). Intracellular C-peptide and protein levels were quantitatively determined. C-peptide level was measured using a human C-peptide ELISA kit (ALPCO Diagnostics) according to the manufacturer's instructions. The total protein in cell lysate was quantitatively determined using a Bio-Rad reagent kit (Bio-Rad). The amount of C-peptide was normalized against the corresponding amount of the total protein.

[4] = test system: endocrine progenitor cells; experiment: Stage 5 differentiation into endocrine cells, quantitative RT-PCR
Procedure: as §1

PG cells [5] = experiment: Stage 3 differentiation into pancreatic progenitor cells, immunocytochemistry
Excerpt: (§2) The medium was changed every two days.

PG cells [6] = experiment: Stage 3 differentiation into pancreatic progenitor cells, quantitative RT-PCR; details: higher concentrations of NOGGIN at stage 3, versus Nog 100
Excerpt: as §2

[7] = 200 ng/ml NOGGIN in stage-3 media
[8] = 200 ng/ml NOGGIN in stage-3 media with RA, KAAD-cyclopamine, SB431542

CC(C)Cn1c(=O)n(C)c(=O)c2[nH]cnc21 [IBMX, 3-isobutyl-1-methylxanthine]
intracellular C-peptide contents [1]: approximately 66 ng/mg protein | proportion of PDX1-positive/CP-negative cells [2]: approximately 22% | proportion of CP single-positive cells [2]: 6.5-6.7% | increase of C-peptide secretion [3]: approximately 4.9 fold | expression levels of β-cell specific genes ([4]; IBMX-induced cells versus FRKL-induced cells): relatively higher | INS expression ([4]; added to basal medium (DMEM/F12, 1% B27, exendin-4 and nicotinamide) at stage 5, versus DMSO): significantly upregulated | expression levels of β-cell maturity genes (PDX1, NKX6.1, MAF-A, ISL-1, UCN3, GCK, IAPP, SLC30A8) ([4]; end of stage 5, versus DMSO-induced cells): remarkably higher

C[N+](C)(C)CCOC(N)=O [carbachol]
increase of C-peptide secretion [3]: approximately 7.0 fold

[Cl-].[K+] [KCl, potassium chloride]
increase of C-peptide secretion [3]: approximately 8.3 fold

COC(=O)C1=C(C)NC(C)=C([N+](=O)[O-])C1c1ccccc1C(F)(F)F (single isomer, unassigned; (-)) [(−) BAY K8644]
increase of C-peptide secretion [3]: approximately 4.9 fold

C=C[C@@]1(C)CC(=O)[C@]2(O)[C@@]3(C)[C@@H](O)CCC(C)(C)[C@@H]3[C@H](O)[C@H](OC(C)=O)[C@@]2(C)O1 [FRKL, forskolin]
intracellular C-peptide contents [1]: approximately 62 ng/mg protein | proportion of PDX1-positive/CP-negative cells [2]: approximately 27% | proportion of CP single-positive cells [2]: 5.6-6.4%

CCCCNC(=O)NS(=O)(=O)c1ccc(C)cc1 [tolbutamide]
increase of C-peptide secretion [3]: approximately 3.0 fold

B1: NOGGIN: recombinant human NOGGIN, BMP signaling inhibitor (R&D Systems) (protein, UniProt Q13253 28-232, looked up)
Noggin: QHYLHIRPAPSDNLPLVDLIEHPDPIFDPKEKDLNETLLRSLLGGHYDPGFMATSPPEDRPGGGGGAAGGAEDLAELDQLLRQRPSGAMPSEIKGLEFSEGLAQGKKQRLSKKLRRKLQMWLWSQTFCPVLYAWNDLGSRFWPRYVKVGSCFSKRSCSVPEGMVCKPSKSVHLTVLRWRCQRRGGQRCGWIPIQYPIISECKCSC
AFP-positive hepatic cells and CDX2-positive intestinal progenitor cells appearing (PG cells [5]; 100 ng/ml NOGGIN at stage 3): considerable proportion | AFP-positive cells in the total DAPI-positive cells (PG cells [5]; [7]): 4% | CDX2-positive cells in the total DAPI-positive cells (PG cells [5]; [7]): 8% | PDX1-positive cells co-expressing HNF-6 (PG cells [5]; [8]): about 62% | PDX1-positive cells co-expressing SOX9 (PG cells [5]; [8]): about 59% | numbers of AFP-positive hepatic cells and CDX2-positive intestinal progenitor cells (PG cells [5]; 200-300 ng/ml NOGGIN at stage 3, versus 100 ng/ml): remarkably reduced | proportion of EC cells ([2]; NOGGIN at 200 ng/ml compared to 100 ng/ml at stages 3 and 4): higher proportion | expression level of early-stage pancreatic dorsal bud gene HLXB9 (PG cells [6]): remarkably upregulated | expression levels of PDX-1 and posterior foregut genes HNF6 and NKX6.1 (PG cells [6]): remarkably upregulated | gene expression levels of CDX2 and AFP (PG cells [6]): remarkably reduced
